{
  "source": "paper PMC8526983",
  "about": "(The Journal of Biological Chemistry, 2021)",
  "biological_target": "T1, PfK5ΔL6-MD (Plasmodium falciparum, UniProt O77382, DEL175-269)",
  "T1 construct": "gene PF3D7_0317500",
  "conditions": "read-out: KATP; 1 μM GMPCPP-stabilised Sus scrofa microtubules; 50 mM Tris-HCl pH 8, KCl, 2 mM MgCl2, 2 mM DTT; 26 °C",
  "data": [
    {"smiles": "Nc1ncnc2c1ncn2[C@@H]1O[C@H](COP(=O)(O)OP(=O)(O)OP(=O)(O)O)[C@@H](O)[C@H]1O", "note": "[ATP]", "values": [
      {"measurement": "Km", "value": 9.5, "unit": "µM"}
    ]}
  ]
}
